According to paper PMC8761492 (Life Science Alliance, 2022):
Starred links: 1 amine or outer side, 2 acyl side, 3 side chain; linkers in the order of their positions; H or OH if unused. Positions of bridges follow the written chain, without caps; N, C: chain ends. Non-standard residues stand in square brackets, D forms with d. Residues, ends and D or L forms follow the SMILES beside them. *: point of attachment. X1 = CC[C@H](C)[C@@H](N[*:1])[C@@H](O)CC(=O)O[C@H](C(=O)[C@H](C)C(=O)[*:2])C(C)C; NMeY = CN[C@@H](Cc1ccc(O)cc1)C(=O)O; dNMeL = CN[C@H](CC(C)C)C(=O)O; Pyruvoyl = CC(=O)C(=O)*

Key:
[1] = Plasma protein binding by equilibrium dialysis, rat plasma; format: in vitro ADME; conditions: male, CD, independent of drug concentration
Procedure: The binding of plitidepsin to plasma proteins was determined in vitro at three concentrations (100, 250 and 500 ng/ml) in male rat, dog and human plasma ([53]).
Rat (CD), beagle dog, and human blood was collected at Aptuit Srl from at least three male donors, and plasma prepared by centrifuging blood at 2,000g, 4°C for 10 min. Human plasma was obtained from healthy and fasted male volunteers. Na-heparin was used as the anti-coagulant for all species. All plasma was stored at approximately −20°C and thawed only once, on the day of the experiment.
Plasma protein binding was assessed using Rapid Equilibrium Dialysis plates pre-loaded with equilibrium dialysis membrane inserts (MWCO ∼8 kD).
Separation of free compound from protein-bound material was achieved by dialysis of the sample through the membrane under appropriate shaking at 37°C. The suitability of equilibrium dialysis as a method for protein binding determination of plitidepsin was assessed.
Before experimentation, the time required to reach equilibrium was determined in male rat and human plasma at one concentration (250 ng/ml) and six selected time points (2, 3, 4, 5, 6, and 7 h) at 37°C. […]

[2] = APLICOV-PC: safety, adverse events and laboratory abnormalities; format: in vivo, human
Procedure: The plitidepsin clinical proof-of-concept study (APLICOV-PC, APL-D-002-20; EudraCT #2020-001993-31; NCT04382066) was a multicenter, randomized, parallel, open-label, proof-of-concept clinical trial, exploring three dose levels of plitidepsin (1.5, 2.0, and 2.5 mg/day, flat doses) for 3 consecutive days, as a 90-min i.v. infusion, in adult patients with COVID-19 who required hospitalization. The study was conducted in 10 hospital centers in Spain between 12 May 2020 and 26 November 2020. Presented data reflect all analyses completed by the cut-off date of 10 December 2020. The research was performed in accordance with good clinical practice guidelines and adhered to the tenets of the Declaration of Helsinki. The study protocol is available in Supplemental Data 1. Supplemental Data 2 summarizes the protocol amendments as well as post hoc analyses that were performed.
Adult (aged ≥18 yr) hospitalized patients with a positive SARS-CoV-2 infection confirmed by real-time RT-PCR testing of a nasopharyngeal exudate or the lower respiratory tract were eligible for inclusion in this study. Despite the eligibility of patients with samples from the lower respiratory tract, all patients reported here had only nasopharyngeal swab samples. Included patients must have had the onset of SARS-CoV-2 infection symptoms no more than 10 d before initiating the study. […] Women and men with partners of childbearing potential agreed to take effective contraception while on study and for 6 mo after the last dose of plitidepsin. All included patients provided written informed consent before the initiation of the study.
Key exclusion criteria included participation in another COVID-19–related clinical trial; receiving antivirals, chloroquine or derivatives, IL-6 receptor inhibitors, or immunomodulatory drugs for treatment of COVID-19; or requiring mechanical ventilation support at enrollment. Patients were also excluded for evidence of multi-organ failure, clinically relevant heart disease, clinically relevant arrhythmia or history of QTc interval prolongation, or neuropathy ≥ grade 2. Full exclusion criteria can be found in Supplemental Data 1.
Randomization was done through registration in the study’s electronic case report form. The system assigned a unique randomization number for each patient. Patients were enrolled sequentially and allocated by block randomization into the three dose groups (1.5, 2.0, and 2.5 mg plitidepsin) up to an initial sample size of nine patients per group. To ensure safety, the first three patients in the 2.0 mg group could not be enrolled until the first three patients in the 1.5 mg cohort had successfully completed Day 15 assessments (12 d after completing plitidepsin dosing); similarly, the first three patients in the 2.5 mg cohort could be not enrolled until the first three patients in the 2.0 mg cohort had successfully completed Day 15 assessments (12 d after completing plitidepsin dosing). Finally, three patients had to be treated in the 2.5 mg cohort to complete the accrual of nine patients per cohort. When multiple dose levels were open for enrollment, patients were randomized 1:1 or 1:1:1 as appropriate (Fig 4). After an interim safety analysis, a protocol amendment was approved to subsequently expand the accrual up to 45 patients (six additional patients per dose group).
Enrolled patients received plitidepsin administered as an i.v. infusion over 90 min on days 1, 2, and 3 at dose levels of 1.5, 2.0, and 2.5 mg. A single batch (Lot 16D19) was administered to all patients. All patients also received, 20–30 min before the infusion of plitidepsin (i.e., on days 1–3), a premedication regimen consisting in: diphenhydramine 25 mg i.v., ranitidine 50 mg i.v., and dexamethasone 8 mg orally. […]

[3] = Post-amendment (n = 36), Grade 1
[4] = Post-amendment (n = 36), Grade 2
[5] = after the premedication amendment
[6] = before the premedication amendment

With `CC[C@H](C)[C@H]1NC(=O)[C@@H](NC(=O)[C@@H](CC(C)C)N(C)C(=O)[C@@H]2CCCN2C(=O)C(C)=O)[C@@H](C)OC(=O)[C@H](Cc2ccc(OC)cc2)N(C)C(=O)[C@@H]2CCCN2C(=O)[C@H](CC(C)C)NC(=O)[C@@H](C)C(=O)[C@H](C(C)C)OC(=O)C[C@@H]1O` [Plitidepsin] (Pyruvoyl-P[dNMeL]T[X1]LP[NMeY](Me); ester 3-C) as the compound, how does the fraction unbound [1] read?
Its fraction unbound is 0.04.

What about the “prevalence of grade 3–4 AEs” value ([2]; 1.5 mg cohort) of the same compound?
Its value is 33.3%.

What about the “prevalence of grade 3–4 AEs” value ([2]; 2.0 mg cohort) of the same compound?
Its value is 20.0%.

What about the “prevalence of grade 3–4 AEs” value ([2]; 2.5 mg cohort) of the same compound?
The value was 40.0%.

What about the “patients with Grade 1 increase in CPK” value ([2]; 3 of 37 with normal baseline values) of the same compound?
Its value is 8.1%.

What about the “patients whose platelet counts normalized” value ([2]; 5 of 12 with Grade 1 thrombocytopenia at entry) of the same compound?
Its value is 41.7%.

What about the patients with hyperglycemia ([2]; 8 of 45, none considered related to plitidepsin) of the same compound?
Its patients with hyperglycemia is 18%.

What about the “patients with elevation of AST” value ([2]; 13 of 44, regardless of causality) of the same compound?
Its value is 30%.

And the “patients with elevation of ALT” value ([2]; 29 of 44, regardless of causality)?
Its value is 66%.

And the “hypersensitivity reactions after changes to premedication” value ([2]; 36 patients, 108 infusions)?
Its value is “No new hypersensitivity reactions”.

And the “serious adverse event considered related to the study drug” value ([2]; Grade 3 hypersensitivity reaction, one event)?
The value was 2.2 % subjects.

What about the Abdominal pain [2, 3] of the same compound?
Its Abdominal pain is 2 (5.6%) N (%).

And the Anorexia [2, 3]?
Its Anorexia is 1 (2.8%) N (%).

And the Asthenia [2, 3]?
Its Asthenia is 1 (2.8%) N (%).

What about the Chest discomfort [2, 3] of the same compound?
Its Chest discomfort is 1 (2.8%) N (%).

And the Diarrhea [2, 3]?
The Diarrhea was 1 (2.8%) N (%).

What about the Dizziness [2, 3] of the same compound?
The Dizziness was 2 (5.6%) N (%).

What about the Dysgeusia [2, 3] of the same compound?
Its Dysgeusia is 2 (5.6%) N (%).

What about the Dyspepsia [2, 3] of the same compound?
The Dyspepsia was 2 (5.6%) N (%).

And the Dysthermia [2, 3]?
Its Dysthermia is 1 (2.8%) N (%).

What about the Nausea [2, 3] of the same compound?
Its Nausea is 11 (30.6%) N (%).

And the Temperature regulation disorder [2, 3]?
Its Temperature regulation disorder is 1 (2.8%) N (%).

And the Vomiting [2, 3]?
Its Vomiting is 3 (8.3%) N (%).

And the Amylase increased [2, 4]?
Its Amylase increased is 1 (2.8%) N (%).

And the Asthenia [2, 4]?
The Asthenia was 1 (2.8%) N (%).

And the Decreased appetite [2, 4]?
Its Decreased appetite is 1 (2.8%) N (%).

What about the Diarrhea [2, 4] of the same compound?
Its Diarrhea is 1 (2.8%) N (%).

And the Lipase increased [2, 4]?
Its Lipase increased is 1 (2.8%) N (%).

What about the Nausea [2, 4] of the same compound?
The Nausea was 3 (8.3%) N (%).

And the Vomiting [2, 4]?
Its Vomiting is 2 (5.6%) N (%).

And the Diarrhea ([2]; Post-amendment (n = 36), Grade 3)?
Its Diarrhea is 1 (2.8%) N (%).

What about the Nausea ([2]; Pre-amendment (n = 9), Grade 1) of the same compound?
Its Nausea is 3 (33.3%) N (%).

And the Vomiting ([2]; Pre-amendment (n = 9), Grade 1)?
Its Vomiting is 2 (22.2%) N (%).

And the Nausea ([2]; Pre-amendment (n = 9), Grade 2)?
The Nausea was 2 (22.2%) N (%).

And the Anaphylactic reaction ([2]; Pre-amendment (n = 9), Grade 3)?
Its Anaphylactic reaction is 1 (11.1%) N (%).

And the “proportion of patients with nausea” value [2, 5]?
Its value is 38.9%.

And the “proportion of patients with vomiting” value [2, 5]?
Its value is 13.9%.

What about the “Grade 4 AEs” value ([2]; all doses) of the same compound?
The value was “No Grade 4 AEs were reported”.

And the hemotoxicity ([2]; all doses)?
The hemotoxicity was “did not show signs of clinically relevant hemotoxicity”.

What about the “patients with treatment related adverse events” value ([2]; all doses, 25 patients) of the same compound?
The value was 55.5%.

And the “patients with one or more adverse events” value ([2]; all doses, 44 of 45)?
The value was 97.8%.

What about the treatment-related abdominal pain ([2]; all doses, 45 treated patients) of the same compound?
Its treatment-related abdominal pain is 4.4%.

And the treatment-related diarrhea ([2]; all doses, 45 treated patients)?
Its treatment-related diarrhea is 6.7%.

And the treatment-related dizziness ([2]; all doses, 45 treated patients)?
The treatment-related dizziness was 4.4%.

What about the treatment-related dysgeusia ([2]; all doses, 45 treated patients) of the same compound?
The treatment-related dysgeusia was 4.4%.

And the treatment-related nausea ([2]; all doses, 45 treated patients)?
Its treatment-related nausea is 42.2%.

And the treatment-related vomiting ([2]; all doses, 45 treated patients)?
The treatment-related vomiting was 15.6%.

What about the “patients with at least one Grade ≥ 3 AE regardless of causality” value ([2]; all doses, NCI-CTCAE v5) of the same compound?
The value was 31%.

What about the “number of Grade 3 AEs attributed to plitidepsin” value ([2]; anaphylactic reaction at 1.5 mg/day and diarrhea at 2.5 mg/day) of the same compound?
The value was “Two”.

And the “proportion of patients with nausea” value [2, 6]?
The value was 55.6%.

What about the “proportion of patients with vomiting” value [2, 6] of the same compound?
Its value is 22.2%.

What about the “patients whose CPK values decreased on study” value ([2]; four of five with Grade 1–2 elevation at entry) of the same compound?
Its value is 80%.

What about the “patients who died (COVID-19-related)” value ([2]; three of 45 treated patients, days 22, 30 and 57) of the same compound?
Its value is 6.7%.
